Where two headings read alike, the source gives them in different places.
Assays:
VvelCSP1 = VvelCSP1 (Vespa velutina auraria, UniProt A0A384ZVP9); assay: Fluorescence competitive binding assay (1-NPN probe) with VvelCSP1; conditions: for Ki: VvelCSP1
Protocol: (§1) Fluorescence competitive binding assays were employed to characterize the interactions between VvelCSPs and 13 volatiles shared between the elaiosomes of S. tuberosa and the cuticular hydrocarbons of honeybees. These tests were performed in 1 cm path length quartz cuvettes with an excitation wavelength of 337 nm and emission wavelength scanning from 400–450 nm. The volatiles and the fluorescent probe 1-NPN (1-N-phenylnaphthylamine), listed in Supplementary Table S2, were dissolved in methanol to prepare 100 mM stock solutions, which were then diluted to 1 mM working solutions [25]. To remove any potential endogenous ligands, the purified proteins were delipidated by three washes with an equal volume of dichloromethane (1:1 v/v). Each wash involved a 10-min incubation, and the process was followed by evaporation of the residual solvent under a gentle stream of nitrogen. Purified CSPs were resuspended in 20 mM Tris-HCl buffer (pH 7.5) to a final concentration of 2 μM. Binding parameters for CSP-NPN were determined by titration: 2 mL of CSP solution (2 μM) was titrated with 1-NPN (final concentrations: 2−24 μM). Maximum fluorescence intensity was recorded, and the dissociation constant was calculated. […] After incubation in the dark for 2 min, fluorescence quenching was measured. Half-maximal inhibitory concentration (IC50) values for volatiles were calculated from the competition curves, and their binding constants (Ki) were subsequently derived. The presented data, including IC50 and Ki values, originate from a single experiment under uniform conditions to ensure comparability (Supplementary Table S3).

VvelCSP4 = assay: Fluorescence competitive binding assay (1-NPN probe) with VvelCSP4; parameters: species or system Vespa velutina auraria; conditions: for IC50: VvelCSP4 2 μM, 1-NPN 1 μM, Tris-HCl pH 7.5, single experiment, read-out: IC50 (ligand concentration displacing 50% of the fluorescence intensity of the CSPs/NPN complex); for Ki: VvelCSP4
Protocol: as §1

[1] = derived from IC50, read-out: Ki (dissociation constant)
[2] = read-out: Binding affinity class (by Ki)

Sequence of VvelCSP1 (A0A384ZVP9 entry or part of it): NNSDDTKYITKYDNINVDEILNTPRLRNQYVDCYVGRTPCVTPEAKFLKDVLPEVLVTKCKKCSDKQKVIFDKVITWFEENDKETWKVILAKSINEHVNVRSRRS

Compound: CCCCCCCCCCCCCCCCCCC [Nanadecane]
- IC50 (VvelCSP1; VvelCSP1 2 μM, 1-NPN 1 μM, Tris-HCl pH 7.5, single experiment, read-out: IC50 (ligand concentration displacing 50% of the fluorescence intensity of the CSPs/NPN complex)): 18.2 µM
- Raw fluorescence intensity (VvelCSP1; VvelCSP1, chemical 0.5 μM): 223.11
- Raw fluorescence intensity (VvelCSP1; VvelCSP1, chemical 1 μM): 209.38
- Raw fluorescence intensity (VvelCSP1; VvelCSP1, chemical 2 μM): 178.27
- Raw fluorescence intensity (VvelCSP1; VvelCSP1, chemical 4 μM): 171.35
- Raw fluorescence intensity (VvelCSP1; VvelCSP1, chemical 6 μM): 158.50
- Raw fluorescence intensity (VvelCSP1; VvelCSP1, chemical 8 μM): 148.00
- Raw fluorescence intensity (VvelCSP1; VvelCSP1, chemical 12 μM): 140.37
- Raw fluorescence intensity (VvelCSP1; VvelCSP1, chemical 16 μM): 133.91
- Ki (VvelCSP1; [1]): 14.5 µM
- Ki (VvelCSP1; [2]): > 10 µM
- IC50 (VvelCSP4): 10.4 µM
- Raw fluorescence intensity (VvelCSP4; VvelCSP4, chemical 0.5 μM): 238.31
- Raw fluorescence intensity (VvelCSP4; VvelCSP4, chemical 1 μM): 207.32
- Raw fluorescence intensity (VvelCSP4; VvelCSP4, chemical 2 μM): 185.38
- Raw fluorescence intensity (VvelCSP4; VvelCSP4, chemical 4 μM): 167.28
- Raw fluorescence intensity (VvelCSP4; VvelCSP4, chemical 6 μM): 153.91
- Raw fluorescence intensity (VvelCSP4; VvelCSP4, chemical 8 μM): 144.81
- Raw fluorescence intensity (VvelCSP4; VvelCSP4, chemical 12 μM): 135.70
- Raw fluorescence intensity (VvelCSP4; VvelCSP4, chemical 16 μM): 129.34
- Ki (VvelCSP4; [1]): 7.89 µM
- Ki (VvelCSP4; [2]): 5 to 10 µM

Compound: CCCCCCCCCCCCCCCCCCCCCCC [Tricosane]
- Raw fluorescence intensity (VvelCSP1; VvelCSP1, chemical 0.5 μM): 193.01
- Raw fluorescence intensity (VvelCSP1; VvelCSP1, chemical 1 μM): 170.16
- Raw fluorescence intensity (VvelCSP1; VvelCSP1, chemical 2 μM): 140.89
- Raw fluorescence intensity (VvelCSP1; VvelCSP1, chemical 4 μM): 116.63
- Raw fluorescence intensity (VvelCSP1; VvelCSP1, chemical 6 μM): 101.34
- Raw fluorescence intensity (VvelCSP1; VvelCSP1, chemical 8 μM): 94.22
- Raw fluorescence intensity (VvelCSP1; VvelCSP1, chemical 12 μM): 88.89
- Raw fluorescence intensity (VvelCSP1; VvelCSP1, chemical 16 μM): 86.00
- IC50 (VvelCSP4): 5.09 µM
- Raw fluorescence intensity (VvelCSP4; VvelCSP4, chemical 0.5 μM): 207.46
- Raw fluorescence intensity (VvelCSP4; VvelCSP4, chemical 1 μM): 177.45
- Raw fluorescence intensity (VvelCSP4; VvelCSP4, chemical 2 μM): 153.67
- Raw fluorescence intensity (VvelCSP4; VvelCSP4, chemical 4 μM): 134.98
- Raw fluorescence intensity (VvelCSP4; VvelCSP4, chemical 6 μM): 119.90
- Raw fluorescence intensity (VvelCSP4; VvelCSP4, chemical 8 μM): 111.62
- Raw fluorescence intensity (VvelCSP4; VvelCSP4, chemical 12 μM): 110.10
- Raw fluorescence intensity (VvelCSP4; VvelCSP4, chemical 16 μM): 107.68
- Ki (VvelCSP4; [1]): 3.85 µM

Compound: CCCCCCCCCCCCCCCCCCCCCCCCCCCCC [Nonacosane]
- Raw fluorescence intensity (VvelCSP1; VvelCSP1, chemical 0.5 μM): 215.85
- Raw fluorescence intensity (VvelCSP1; VvelCSP1, chemical 1 μM): 197.03
- Raw fluorescence intensity (VvelCSP1; VvelCSP1, chemical 2 μM): 181.17
- Raw fluorescence intensity (VvelCSP1; VvelCSP1, chemical 4 μM): 168.33
- Raw fluorescence intensity (VvelCSP1; VvelCSP1, chemical 6 μM): 152.52
- Raw fluorescence intensity (VvelCSP1; VvelCSP1, chemical 8 μM): 138.03
- Raw fluorescence intensity (VvelCSP1; VvelCSP1, chemical 12 μM): 127.11
- Raw fluorescence intensity (VvelCSP1; VvelCSP1, chemical 16 μM): 120.08
- IC50 (VvelCSP4): 20.4 µM
- Raw fluorescence intensity (VvelCSP4; VvelCSP4, chemical 0.5 μM): 212.97
- Raw fluorescence intensity (VvelCSP4; VvelCSP4, chemical 1 μM): 196.97
- Raw fluorescence intensity (VvelCSP4; VvelCSP4, chemical 2 μM): 179.08
- Raw fluorescence intensity (VvelCSP4; VvelCSP4, chemical 4 μM): 164.16
- Raw fluorescence intensity (VvelCSP4; VvelCSP4, chemical 6 μM): 151.46
- Raw fluorescence intensity (VvelCSP4; VvelCSP4, chemical 8 μM): 136.04
- Raw fluorescence intensity (VvelCSP4; VvelCSP4, chemical 12 μM): 129.53
- Raw fluorescence intensity (VvelCSP4; VvelCSP4, chemical 16 μM): 125.16
- Ki (VvelCSP4; [1]): 15.1 µM

Compound: CCCCCCCCCCCCCCCCCCCCCCCCC [Pentacosane]
- Raw fluorescence intensity (VvelCSP1; VvelCSP1, chemical 0.5 μM): 242.52
- Raw fluorescence intensity (VvelCSP1; VvelCSP1, chemical 1 μM): 219.99
- Raw fluorescence intensity (VvelCSP1; VvelCSP1, chemical 2 μM): 165.83
- Raw fluorescence intensity (VvelCSP1; VvelCSP1, chemical 4 μM): 143.30
- Raw fluorescence intensity (VvelCSP1; VvelCSP1, chemical 6 μM): 135.17
- Raw fluorescence intensity (VvelCSP1; VvelCSP1, chemical 8 μM): 129.88
- Raw fluorescence intensity (VvelCSP1; VvelCSP1, chemical 12 μM): 124.70
- Raw fluorescence intensity (VvelCSP1; VvelCSP1, chemical 16 μM): 122.60
- IC50 (VvelCSP4): 4.65 µM
- Raw fluorescence intensity (VvelCSP4; VvelCSP4, chemical 0.5 μM): 211.45
- Raw fluorescence intensity (VvelCSP4; VvelCSP4, chemical 1 μM): 182.28
- Raw fluorescence intensity (VvelCSP4; VvelCSP4, chemical 2 μM): 160.44
- Raw fluorescence intensity (VvelCSP4; VvelCSP4, chemical 4 μM): 139.39
- Raw fluorescence intensity (VvelCSP4; VvelCSP4, chemical 6 μM): 119.91
- Raw fluorescence intensity (VvelCSP4; VvelCSP4, chemical 8 μM): 111.74
- Raw fluorescence intensity (VvelCSP4; VvelCSP4, chemical 12 μM): 105.45
- Raw fluorescence intensity (VvelCSP4; VvelCSP4, chemical 16 μM): 103.82
- Ki (VvelCSP4; [1]): 3.49 µM

Compound: CCCCCCCC/C=C\CCCCCCCCCCCCC [Z-9-Tricosene]
- Raw fluorescence intensity (VvelCSP1; VvelCSP1, chemical 0.5 μM): 214.80
- Raw fluorescence intensity (VvelCSP1; VvelCSP1, chemical 1 μM): 200.54
- Raw fluorescence intensity (VvelCSP1; VvelCSP1, chemical 2 μM): 176.56
- Raw fluorescence intensity (VvelCSP1; VvelCSP1, chemical 4 μM): 164.98
- Raw fluorescence intensity (VvelCSP1; VvelCSP1, chemical 6 μM): 151.46
- Raw fluorescence intensity (VvelCSP1; VvelCSP1, chemical 8 μM): 137.73
- Raw fluorescence intensity (VvelCSP1; VvelCSP1, chemical 12 μM): 126.20
- Raw fluorescence intensity (VvelCSP1; VvelCSP1, chemical 16 μM): 120.19
- IC50 (VvelCSP4): 3.97 µM
- Raw fluorescence intensity (VvelCSP4; VvelCSP4, chemical 0.5 μM): 182.16
- Raw fluorescence intensity (VvelCSP4; VvelCSP4, chemical 1 μM): 152.13
- Raw fluorescence intensity (VvelCSP4; VvelCSP4, chemical 2 μM): 132.92
- Raw fluorescence intensity (VvelCSP4; VvelCSP4, chemical 4 μM): 109.71
- Raw fluorescence intensity (VvelCSP4; VvelCSP4, chemical 6 μM): 96.72
- Raw fluorescence intensity (VvelCSP4; VvelCSP4, chemical 8 μM): 89.44
- Raw fluorescence intensity (VvelCSP4; VvelCSP4, chemical 12 μM): 84.83
- Raw fluorescence intensity (VvelCSP4; VvelCSP4, chemical 16 μM): 83.78
- Ki (VvelCSP4; [1]): 2.97 µM

Compound: CCCCCCCCCCCCCCCCCCCCCC [Docosane]
- Raw fluorescence intensity (VvelCSP1; VvelCSP1, chemical 0.5 μM): 246.77
- Raw fluorescence intensity (VvelCSP1; VvelCSP1, chemical 1 μM): 231.89
- Raw fluorescence intensity (VvelCSP1; VvelCSP1, chemical 2 μM): 197.76
- Raw fluorescence intensity (VvelCSP1; VvelCSP1, chemical 4 μM): 171.56
- Raw fluorescence intensity (VvelCSP1; VvelCSP1, chemical 6 μM): 161.14
- Raw fluorescence intensity (VvelCSP1; VvelCSP1, chemical 8 μM): 158.53
- Raw fluorescence intensity (VvelCSP1; VvelCSP1, chemical 12 μM): 154.82
- Raw fluorescence intensity (VvelCSP1; VvelCSP1, chemical 16 μM): 153.17
- IC50 (VvelCSP4): 3.68 µM
- Raw fluorescence intensity (VvelCSP4; VvelCSP4, chemical 0.5 μM): 205.93
- Raw fluorescence intensity (VvelCSP4; VvelCSP4, chemical 1 μM): 179.89
- Raw fluorescence intensity (VvelCSP4; VvelCSP4, chemical 2 μM): 159.86
- Raw fluorescence intensity (VvelCSP4; VvelCSP4, chemical 4 μM): 127.80
- Raw fluorescence intensity (VvelCSP4; VvelCSP4, chemical 6 μM): 108.85
- Raw fluorescence intensity (VvelCSP4; VvelCSP4, chemical 8 μM): 102.51
- Raw fluorescence intensity (VvelCSP4; VvelCSP4, chemical 12 μM): 95.75
- Raw fluorescence intensity (VvelCSP4; VvelCSP4, chemical 16 μM): 91.32
- Ki (VvelCSP4; [1]): 2.73 µM
